In PubChem BioAssay AID2060505 (Molecular Pharmacology Branch, DTP, NCI, 2025):

Test system: 633275-114-R-J1-PDC complex spheroids, viability
Assay: Anticancer human tumor 633275-114-R-J1-PDC patient-derived endometrial adenocarcinoma cell line growth inhibition [GQUAD]
Conditions: for IC50: curve of first compound; for viability, T/C: stronger effect = lower value
Summary of the method: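 Multi-cell-type spheroids of tumor cells with HUVEC and mesenchymal stem cells, treated with drug combinations. Concentrations descend in half-log steps from near clinical Cmax, or from 10 microM where Cmax is unknown; viability read-out.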

[1] = second compound 0.0316 µM, first compound 0.0316 µM
[2] = second compound 0.0316 µM, first compound 0.1 µM
[3] = second compound 0.0316 µM, first compound 0.316 µM
[4] = second compound 0.0316 µM, first compound 1 µM
[5] = second compound 0.0316 µM, first compound 3.16 µM
[6] = second compound 0.0316 µM, first compound 10 µM
[7] = second compound 0.1 µM, first compound 0.0316 µM
[8] = second compound 0.1 µM, first compound 0.1 µM
[9] = second compound 0.1 µM, first compound 0.316 µM
[10] = second compound 0.1 µM, first compound 1 µM
[11] = second compound 0.1 µM, first compound 3.16 µM
[12] = second compound 0.1 µM, first compound 10 µM
[13] = second compound 0.316 µM, first compound 0.0316 µM
[14] = second compound 0.316 µM, first compound 0.1 µM
[15] = second compound 0.316 µM, first compound 0.316 µM
[16] = second compound 0.316 µM, first compound 1 µM
[17] = second compound 0.316 µM, first compound 3.16 µM
[18] = second compound 0.316 µM, first compound 10 µM
[19] = second compound 1 µM, first compound 0.0316 µM
[20] = second compound 1 µM, first compound 0.1 µM
[21] = second compound 1 µM, first compound 0.316 µM
[22] = second compound 1 µM, first compound 1 µM
[23] = second compound 1 µM, first compound 3.16 µM
[24] = second compound 1 µM, first compound 10 µM
[25] = second compound 3.16 µM, first compound 0.0316 µM
[26] = second compound 3.16 µM, first compound 0.1 µM
[27] = second compound 3.16 µM, first compound 0.316 µM
[28] = second compound 3.16 µM, first compound 1 µM
[29] = second compound 3.16 µM, first compound 3.16 µM
[30] = second compound 3.16 µM, first compound 10 µM
[31] = second compound 10 µM, first compound 0.0316 µM
[32] = second compound 10 µM, first compound 0.1 µM
[33] = second compound 10 µM, first compound 0.316 µM
[34] = second compound 10 µM, first compound 1 µM
[35] = second compound 10 µM, first compound 3.16 µM
[36] = second compound 10 µM, first compound 10 µM
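Note: spheroids exposed to the agents for seven days.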
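Throughout, for viability, T/C: percent of DMSO vehicle control viability which is 100%.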

Compound: CC(C)n1c(=O)n(C)c2cnc3cc(F)c(-c4ccc(OCCCN5CCCCC5)nc4)cc3c21 + Cc1[nH]c2ccc(F)cc2c1-c1nc2c3cccnc3c3ncccc3c2[nH]1
- IC50 (second compound 0.0316 µM): > 10000 nM
- IC50 (second compound 0.1 µM): > 10000 nM
- IC50 (second compound 0.316 µM): > 10000 nM
- IC50 (second compound 1 µM): > 10000 nM
- IC50 (second compound 3.16 µM): > 10000 nM
- IC50 (second compound 10 µM): > 10000 nM
- viability, T/C [1]: 109%
- viability, T/C [2]: 105%
- viability, T/C [3]: 109%
- viability, T/C [4]: 100%
- viability, T/C [5]: 95.3%
- viability, T/C [6]: 68.3%
- viability, T/C [7]: 109%
- viability, T/C [8]: 105%
- viability, T/C [9]: 108%
- viability, T/C [10]: 101%
- viability, T/C [11]: 97.8%
- viability, T/C [12]: 70.5%
- viability, T/C [13]: 106%
- viability, T/C [14]: 105%
- viability, T/C [15]: 99.8%
- viability, T/C [16]: 99.2%
- viability, T/C [17]: 99.9%
- viability, T/C [18]: 71.2%
- viability, T/C [19]: 106%
- viability, T/C [20]: 98.2%
- viability, T/C [21]: 103%
- viability, T/C [22]: 90.9%
- viability, T/C [23]: 98.7%
- viability, T/C [24]: 70.7%
- viability, T/C [25]: 79.8%
- viability, T/C [26]: 76.3%
- viability, T/C [27]: 76.2%
- viability, T/C [28]: 72.2%
- viability, T/C [29]: 68.9%
- viability, T/C [30]: 55.1%
- viability, T/C [31]: 76.4%
- viability, T/C [32]: 74.4%
- viability, T/C [33]: 73.9%
- viability, T/C [34]: 74.1%
- viability, T/C [35]: 75%
- viability, T/C [36]: 55.4%

Compound: CC1COCCN1c1cc(-c2ccnn2C)c2ccnc(-c3ccn[nH]3)c2n1 (stereo not drawn) + Cc1[nH]c2ccc(F)cc2c1-c1nc2c3cccnc3c3ncccc3c2[nH]1
- IC50 (second compound 0.0316 µM): 146 nM
- IC50 (second compound 0.1 µM): 156 nM
- IC50 (second compound 0.316 µM): 191 nM
- IC50 (second compound 1 µM): 116 nM
- IC50 (second compound 3.16 µM): 70.4 nM
- IC50 (second compound 10 µM): 74.8 nM
- viability, T/C [1]: 77.3%
- viability, T/C [2]: 56.4%
- viability, T/C [3]: 37.1%
- viability, T/C [4]: 27.7%
- viability, T/C [5]: 21.9%
- viability, T/C [6]: 16.8%
- viability, T/C [7]: 80.5%
- viability, T/C [8]: 57.5%
- viability, T/C [9]: 38.3%
- viability, T/C [10]: 26.3%
- viability, T/C [11]: 21.4%
- viability, T/C [12]: 17%
- viability, T/C [13]: 77.6%
- viability, T/C [14]: 62.9%
- viability, T/C [15]: 39%
- viability, T/C [16]: 28.1%
- viability, T/C [17]: 21.2%
- viability, T/C [18]: 18.4%
- viability, T/C [19]: 77.9%
- viability, T/C [20]: 52.5%
- viability, T/C [21]: 34.6%
- viability, T/C [22]: 26.6%
- viability, T/C [23]: 23%
- viability, T/C [24]: 17.7%
- viability, T/C [25]: 60.9%
- viability, T/C [26]: 46.1%
- viability, T/C [27]: 31.1%
- viability, T/C [28]: 26.8%
- viability, T/C [29]: 21.7%
- viability, T/C [30]: 17.5%
- viability, T/C [31]: 61%
- viability, T/C [32]: 46.9%
- viability, T/C [33]: 30.8%
- viability, T/C [34]: 25.1%
- viability, T/C [35]: 21.1%
- viability, T/C [36]: 18.6%

Compound: CC1COCCN1c1cc(C2(O)CC3CCC(C2)O3)c2cnn(-c3ccn[nH]3)c2n1 (stereo not drawn) + Cc1[nH]c2ccc(F)cc2c1-c1nc2c3cccnc3c3ncccc3c2[nH]1
- IC50 (second compound 0.0316 µM): 99.9 nM
- IC50 (second compound 0.1 µM): 99.1 nM
- IC50 (second compound 0.316 µM): 90.4 nM
- IC50 (second compound 1 µM): 82.9 nM
- IC50 (second compound 3.16 µM): 47.6 nM
- IC50 (second compound 10 µM): 38.3 nM
- viability, T/C [1]: 80.1%
- viability, T/C [2]: 49.7%
- viability, T/C [3]: 31.2%
- viability, T/C [4]: 20.5%
- viability, T/C [5]: 14.6%
- viability, T/C [6]: 9.97%
- viability, T/C [7]: 76.6%
- viability, T/C [8]: 50.4%
- viability, T/C [9]: 30%
- viability, T/C [10]: 20.7%
- viability, T/C [11]: 15.8%
- viability, T/C [12]: 10.3%
- viability, T/C [13]: 75.3%
- viability, T/C [14]: 46.9%
- viability, T/C [15]: 30.2%
- viability, T/C [16]: 21.3%
- viability, T/C [17]: 15.4%
- viability, T/C [18]: 9.62%
- viability, T/C [19]: 70.6%
- viability, T/C [20]: 46.3%
- viability, T/C [21]: 28.8%
- viability, T/C [22]: 20.4%
- viability, T/C [23]: 14.9%
- viability, T/C [24]: 9.89%
- viability, T/C [25]: 56.5%
- viability, T/C [26]: 37.9%
- viability, T/C [27]: 26.5%
- viability, T/C [28]: 19.4%
- viability, T/C [29]: 14.7%
- viability, T/C [30]: 9.57%
- viability, T/C [31]: 52.4%
- viability, T/C [32]: 38%
- viability, T/C [33]: 25.7%
- viability, T/C [34]: 18.2%
- viability, T/C [35]: 15.1%
- viability, T/C [36]: 9.9%

Compound: CC1COCCN1c1cc(C2(S(C)(=N)=O)CC2)nc(-c2ccnc3[nH]ccc23)n1 (stereo not drawn) + Cc1[nH]c2ccc(F)cc2c1-c1nc2c3cccnc3c3ncccc3c2[nH]1
- IC50 (second compound 0.0316 µM): 3460 nM
- IC50 (second compound 0.1 µM): 3070 nM
- IC50 (second compound 0.316 µM): 3550 nM
- IC50 (second compound 1 µM): 3240 nM
- IC50 (second compound 3.16 µM): 1290 nM
- IC50 (second compound 10 µM): 1380 nM
- viability, T/C [1]: 105%
- viability, T/C [2]: 96.1%
- viability, T/C [3]: 98.3%
- viability, T/C [4]: 73.9%
- viability, T/C [5]: 52.6%
- viability, T/C [6]: 33.8%
- viability, T/C [7]: 97.3%
- viability, T/C [8]: 99.9%
- viability, T/C [9]: 96.4%
- viability, T/C [10]: 78.5%
- viability, T/C [11]: 49.8%
- viability, T/C [12]: 33.2%
- viability, T/C [13]: 102%
- viability, T/C [14]: 97.5%
- viability, T/C [15]: 90.5%
- viability, T/C [16]: 81.6%
- viability, T/C [17]: 50.4%
- viability, T/C [18]: 33.5%
- viability, T/C [19]: 90.9%
- viability, T/C [20]: 92.8%
- viability, T/C [21]: 87.6%
- viability, T/C [22]: 73%
- viability, T/C [23]: 50.7%
- viability, T/C [24]: 34.3%
- viability, T/C [25]: 73.7%
- viability, T/C [26]: 76.4%
- viability, T/C [27]: 69.9%
- viability, T/C [28]: 52.6%
- viability, T/C [29]: 38.4%
- viability, T/C [30]: 30.3%
- viability, T/C [31]: 71.7%
- viability, T/C [32]: 71.5%
- viability, T/C [33]: 67%
- viability, T/C [34]: 54.7%
- viability, T/C [35]: 37.6%
- viability, T/C [36]: 27.2%
